Test results reported in ChEMBL document CHEMBL6078627, “Epigallocatechin and epigallocatechin-3-gallate are not inhibitors of tyrosinase” (Bioorg Med Chem Lett, 2024).
Activity calls are given as the source filed them. No cut-off for these calls is given here.

What was measured:
Assay type in all cases: protein assay
[1] = biological target: T1, Mushroom tyrosinase (Agaricus bisporus) (UniProt O42713+Q00024+C7FF04+C7FF05); assay: Inhibition of mushroom Tyrosinase using L-DOPA as substrate assessed as change in absorbance at 50 to 100 uM by spectrophotometric analysis; conditions: dose 50-100 µM
[2] = biological target: T1, Mushroom tyrosinase (Agaricus bisporus); assay: Inhibition of mushroom Tyrosinase using L-DOPA as substrate assessed as change in absorbance at 50 to 100 uM at 305 nm by spectrophotometric analysis; conditions: dose 50-100 µM
[3] = biological target: T1, Mushroom tyrosinase (Agaricus bisporus); assay: Inhibition of mushroom Tyrosinase using L-DOPA as substrate assessed as reduction in oxygen consumption
[4] = biological target: T1, Mushroom tyrosinase (Agaricus bisporus); assay: Inhibition of mushroom Tyrosinase using L-DOPA as substrate assessed as reduction in oxygen consumption measured after 10 mins

## Oc1cc(O)c2c(c1)O[C@H](c1cc(O)c(O)c(O)c1)[C@H](O)C2
[1]
  inhibition: Active
[2]
  inhibition: Active
[3]
  inhibition: Active

## O=C(O)c1cc(O)c(O)c(O)c1
[1]
  inhibition: Active
[2]
  inhibition: Active
[3]
  inhibition: Active

## O=C(O[C@@H]1Cc2c(O)cc(O)cc2O[C@@H]1c1cc(O)c(O)c(O)c1)c1cc(O)c(O)c(O)c1
[1]
  inhibition: Active
[2]
  inhibition: Active
[4]
  inhibition: 10%
[3]
  inhibition: Active
